In patent publication US20090099167A1, “Organic compounds” (Novartis Institutes for Biomedical Research, priority 2004, published 2009):

Each compound was assayed against T1, human insulin receptor (Ins-R) (Homo sapiens, UniProt P06213) (assay: Ins-R tyrosine kinase assay, GST-Ins-R). Conditions: Table 4; read-out: Ins-R, activity (IC50 for kinase inhibition).
T1 construct: encoding the amino acid region 919-1343 of the intra-cytoplasmic kinase domain of the human insulin receptor; made in house; host or cells: baculovirus (Bac-to-Bac)
Assay type: biochemical
From the text: The inhibition of IGF-1R and Ins-R can be determined as follows: The baculovirus donor vector pfbgx3IGFIRcd is used to generate a recombinant baculovirus that expresses the amino acid region 950-1337 of the mature peptide cytoplasmic domain of the human IGF-IR. To generate the cDNA fragment encoding the amino acid region 919-1343 of the intra-cytoplasmic kinase domain of the human insulin receptor, pC5hInsR is used. The fragments of the human IGF-IR and Ins-R are cloned, expressed and small-scale purified as a factor Xa-cleavable glutathione-S-transferase (GST)-fusion protein using the Bac-to-Bac™ system (GIBCO BRL) of recombinant baculovirus generation. Virus containing media is collected from the transfected cell culture and used for infection to increase its titer. Virus containing media obtained after two rounds of infection is used for large-scale protein expression. Cell extracts are prepared and loaded onto a glutathione-Sepharose (Pharmacia) column. After washing, the GST-tagged proteins are then eluted with a glutathione-containing buffer. Purified protein is stored at −70° C. in elution buffer. Tyrosine protein kinase assays with purified GST-IGF-1R and GST-ins-R are carried in a final volume of 30 μl containing 20 mM Tris-HCl, pH 7.6, 10 mM MgCl2, 0.01 mM Na3VO4, 1% DMSO, 1 mM DTT, 3 μg/ml poly(Glu,Tyr) 4:1 and 10 μM ATP (γ-[^33P]-ATP 0.1 μCi). The assay is performed in 96-well plates at ambient temperature for 20 min and terminated by addition of 25 μl 0.05 M EDTA pH 7.0. An aliquot of 40 μl is spotted with a multichannel dispenser on Whatman P81 membranes mounted in a Millipore Microtiter filter manifold connected to a low vacuum source. After elimination of liquid, the membrane is transferred to a sequence of 4 washing baths containing 0.5% H3PO4 and one with EtOH (shaking incubation for 10 min each), dried, mounted onto a Hewlett Packard TopCount manifold added 10 μl Microscint® and counted. Compounds of formula (I) show up to 90% inhibition of Ins-R at 10,000 nM, preferably between 60-90% inhibition. The inhibition of Tek can be determined as follows: The procedure of the expression, purification and assay these kinases has been described. Fabbro et al., Pharmacol. Ther. 82(2-3) 293-301 (1999). In brief, the glutathione S-transferase (GST) gene from the pAcG1 vector (Pharmingen) is excised with EcoRV and EcoRI and inserted into the cloning site of the Fast-Bac baculoviral vector (GIBCO) creating a 5530 bp vector with N-terminal cloning sites derived from the pAcG1 fusion vector (FBG0). The C-terminal cloning site may be any cloning site (from the Fast-Bac vector) downstream of the N-terminal cloning site used. N-terminally GST-fused (pAcG1, Pharmingen) KDR, Flt-1, Flk-1, Tek and PDGFR-β kinase domains are obtained from ProQinase, Freiburg, Germany. Tek is recloned into the FBG1 vector by EcoRI excision and ligation into EcoRI digested FBG1 (FBG1-Tek). The coding sequences for the whole cytoplasmic domain of c-Kit (aa 544-976) and c-Fms (aa 538-972) are amplified by PCR from human uterus and from human bone marrow cDNA libraries (Clontech), respectively. The amplified DNA fragments are fused to GST by cloning them into FBG1 as BamHI-EcoRI insertions, to yield FBG1-c-Kit and FBG1-c-Fms. Tek is recloned into the FBG0 transfer vector by EcoRI excision and ligation into EcoRI digested FBG0 (FBG-Tie2/Tek). FGFR-1 and c-met kinase domains are obtained by PCR from human A431 cells. N-terminal primers contain an overhanging EcoRI site, while C-terminal primers contain a XhoI site to aid cloning into the transfer vectors. After digestion of both the PCR fragments and FBG0 the cleavage products are gel-purified and ligated together to form the kinase constructs (FBG-Met, FBG-FGFR-1).

T1 sequence (P06213 958-1382 limits assumed): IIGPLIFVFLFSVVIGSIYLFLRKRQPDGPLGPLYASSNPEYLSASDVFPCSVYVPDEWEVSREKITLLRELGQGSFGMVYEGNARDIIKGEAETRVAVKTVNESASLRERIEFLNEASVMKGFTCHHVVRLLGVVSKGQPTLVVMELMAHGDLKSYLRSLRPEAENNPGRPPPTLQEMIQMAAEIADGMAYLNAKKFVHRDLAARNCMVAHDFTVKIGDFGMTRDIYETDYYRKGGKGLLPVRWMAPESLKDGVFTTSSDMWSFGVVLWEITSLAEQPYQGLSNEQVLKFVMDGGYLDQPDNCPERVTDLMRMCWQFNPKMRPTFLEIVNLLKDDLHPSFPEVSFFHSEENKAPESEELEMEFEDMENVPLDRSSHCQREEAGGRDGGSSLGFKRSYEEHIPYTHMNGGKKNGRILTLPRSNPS

Row | IC50 | Structure (SMILES)
1 | < 10 µM | CN1CCN(c2ccc(-c3cnn4c(N)c(-c5cccc(O)c5)cnc34)cc2)CC1 [Example 1, 3-{7-Amino-3-[4-(4-methyl-piperazin-1-yl)-phenyl]-pyrazolo[1,5-a]pyrimidin-6-yl}-phenol]

Same assay, conditions: Table 5; read-out: Ins-R, IC50 class

Row | Structure (SMILES) | IC50
2 | Cc1nc2c(-c3cccc(N4CCN(C)CC4)c3)cnn2c(N)c1-c1ccc(F)cc1 [Example 80, 6-(4-Fluoro-phenyl)-5-methyl-3-[3-(4-methyl-piperazin-1-yl)-phenyl]-pyrazolo[1,5-a]pyrimidin-7-ylamine] | > 10 µM
3 | COc1cc(N2CCN(C)CC2)ccc1-c1cnn2c(N)c(-c3cccc(O)c3)cnc12 [Example 76, 3-{7-Amino-3-[2-methoxy-4-(4-methyl-piperazin-1-yl)-phenyl]-pyrazolo[1,5-a]pyrimidin-6-yl}-phenol] | 1 to 10 µM
4 | Cc1nc2c(-c3cccc(N4CCN(C)CC4)c3)cnn2c(N)c1-c1cccc(Cl)c1 [Example 72, 6-(3-Chloro-phenyl)-5-methyl-3-[3-(4-methyl-piperazin-1-yl)-phenyl]-pyrazolo[1,5-a]pyrimidin-7-ylamine] | 1 to 10 µM
5 | Cc1nc2c(-c3ccc(N4CCN(C)CC4)cc3)cnn2c(N)c1-c1cccc(Cl)c1 [Example 73, 6-(3-Chloro-phenyl)-5-methyl-3-[4-(4-methyl-piperazin-1-yl)-phenyl]-pyrazolo[1,5-a]pyrimidin-7-ylamine] | > 10 µM

The next lines start with the values.

Row | IC50 | Structure (SMILES)
6 | > 10 µM | COc1ccc(-c2cnn3c(N)c(-c4cccc(Cl)c4)c(C)nc23)cc1 [Example 88, 6-(3-Chloro-phenyl)-3-(4-methoxy-phenyl)-5-methyl-pyrazolo[1,5-a]pyrimidin-7-ylamine]
7 | > 10 µM | Cc1nc2c(-c3cccc(N4CCN(CCO)CC4)c3)cnn2c(N)c1-c1cccc(Cl)c1 [Example 90, 2-(4-{3-[7-Amino-6-(3-chloro-phenyl)-5-methyl-pyrazolo[1,5-a]pyrimidin-3-yl]-phenyl}-piperazin-1-yl)-ethanol]
8 | > 10 µM | Cc1nc2c(-c3ccc(N4CCN(C)CC4)cc3)cnn2c(N)c1-c1ccc(F)c(Cl)c1 [Example 83, 6-(3-Chloro-4-fluoro-phenyl)-5-methyl-3-[4-(4-methyl-piperazin-1-yl)-phenyl]-pyrazolo[1,5-a]pyrimidin-7-ylamine]
